Several values for one entry are separate records, joined by “and”; a condition that tells them apart may be missing. Identical values can stand only once. Marks after values point to notes of the source that are not given here.
How the values were obtained:
[1] = system: RuR-induced flaccid paralysis; experiment: Antagonism of ruthenium red (RuR)-induced flaccid paralysis, flagpole test; assay type: in vivo, mouse; conditions: for antagonism of the flaccid paralysis induced by ip RuR (conclusion): doses of Table 3
Procedure: Method and Results: Groups of 4–5 mice (CD-1; Charles River; 25–35 grams) were separately but simultaneously injected ip with ruthenium red and vehicle (1% glacial acetic acid), ruthenium red and 4-AP, or ruthenium red and HP 184. The compound known as “8183” was also tested in this paradigm. Starting at 15 minutes after injections, mice were placed near a “flagpole” apparatus and their ability to support their own body weight (ie, to hold on to the flagpole and not fall) was recorded. Results were recorded as the number of mice that could support their own body weight versus the total number of mice tested. All experiments were performed between 2PM and 4:30PM.

[2] = system: long-standing (25 days) spinal cord injury of minor intensity; experiment: Chronic crush experiment, 25-day old mild compression injury (1.6 mm), OFT score; assay type: in vivo, rat
Excerpt: Normal spinal cord diameter is approximately 2.5 mm. This compression represents a moderate injury characterized by initial open field walking scores of 1.5–2.5 in the Open Field Walking Scale. […] The spinal cords of female rats were exposed to laminectomy or crush to a diameter of 1.6 mm. This represented a minor injury, and was designed to result in OFT scores of 4.0 after 25 days of no treatment. […] In this experiment, OFT scores were slightly higher (4.3–4.5), leaving only a small window for improvement. […] Consistent improvement was also observed after once a day ip 0.6 mg/kg 4-AP as well. The statistical differences were based upon the changes for each individual rat (each rat was its own control) using Mann-Whitney U-test. All the behavioral tests on day1, day2 and day3 were performed at 3 hours after gavage. There was no drug given on day3 (first day started to give drug was day 0).

[3] = system: moderate chronic (35 days post-injury) spinal cord crush; experiment: Long standing moderate spinal cord crush (35 days), OFT score; assay type: in vivo, rat
Excerpt: A tabular representation of the results from both chronic spinal cord injury studies (drugs first administered 25 days after a mild spinal cord crush and 35 days after a moderate spinal cord crush) are shown in Table 5.
One hundred fifty adult female Wistar rats, 250–300 g weight, obtained from Charles River were housed in the McMaster University Health Sciences Centre (HSC) Central Animal Facilities (CAF) for at least one week. During that time they were exposed to the performance tests described below, to ensure they were familiar with them. Rats were handled daily for 2 weeks prior to surgery.
Rats were anesthetized using isoflurane (3–5%): O2 (1 L/min) in an appropriately equipped surgical suite in the CAF. Temgesic (0.03 mg/kg body weight, subcutaneously (SQ)) was administered prior to surgery for pain relief. Spinal cords were crushed (compressed) with a 3.5 mm wide modified coverslip forceps (Blight 1991, procedure revised by Rathbone laboratory). The forceps were closed to 1.4 mm for 15 sec, which produced injury level equivalent to the mid-level (moderate) outcome on the Gruner scale (1996). The compression injury was otherwise performed according to the procedure described by Blight (1991).
Changes in locomotor behaviour and segmental reflexes were assessed up to 5 weeks post injury. Animals were tested in an open field walking task, hind limb placement and foot orientation. The animals were evaluated on days 2, 7, 14, 21, 28 and 35 after surgery. By 35 days after surgery, almost no further spontaneous recovery occurs. Therefore treatment began on day 35.
HP184 was dissolved in sterilized (autoclaved) deionized reverse-osmosis water acidified with glacial acetic acid (0.1 ml acid per 10 ml of water). 4-AP (Sigma, molecular weight 94.12; Jankowska E. et al., 1982; Gruner et al., 1999) was dissolved in physiological saline (0.6 mg/kg b.w.) and was administered by i.p. injection. One group of rats (vehicle control-1) received by oral gavage vehicle. Behaviourial testing was done immediately prior to receiving the gavage and at 3 hours thereafter. Then, the rats were scarified on day 35. All the other rats received either HP184 by oral gavage (0.3, 1, or 3 mg/kg bw depending on the group) or 4-AP (0.6 mg/kg, i.p.) or vehicle (vehicle control-2) once a day on the 35 to 42 days after surgery. On these days behaviourial tests were done immediately prior to receiving the gavage at 3 and 24 hours thereafter. Then, the rats were perfused on day 43 after the last behaviourial testing.
Statistical analyses were performed on a Macintosh computer using GB-Stat ppc 6.5.2. The behavioral scores were analyzed by the Kruskal-Wallis nonparametric analysis of variance (ANOVA). Post hoc comparisons were made using Mann-Whitney U tests.

[4] = system: demyelinated area at the moderate compression injury site; experiment: Histological study of spinal cords, demyelinated area (luxol fast blue); assay type: in vivo, rat; conditions: HP184 0.3, 1 or 3 mg/kg po or 4-AP 0.6 mg/kg ip, days 35–42 after moderate crush
Procedure: A study to test whether the treatment with HP184 affected the amount of myelin in rats with moderate long term spinal cord crush injury when administered long after spinal cord injury.
The spinal cords from rats described above in the assessment were used for this study.
(50–60 mg/kg body weight, i.p.) and perfused transcardically—first with 100 mL 0.05M phosphate buffed saline (PBS) containing 0.1% heparin, followed by 300–500 mL of 4% paraformaldehyde (PFA). Segments T9 to L1 of the spinal cords were taken out, then cryo-protected in 30% sucrose solution and frozen at −70° C. in 10.24% polyvinyl alcohol and 4.26% polyethylene glycol.
A segment of each cord including the lesion site plus 10 mm rostral and caudal to the lesion site was embedded in Tissue Tek medium. Serial sections were cut longitudinally at 20 μm intervals on a cryostat. Every third section was stained with luxol fast blue for myelin. The evaluation was performed by observers blinded as to treatment, on coded slides. Sections were examined under a light microscope for the extent of demyelination (the area without luxol fast blue staining).
For determinations of the maximal demyelinated area of the cord, the whole section was digitized on photographs using a Zeiss microscope. The extent of demyelination was measured at the lesion center using a computerized Bioquant BQ-TCW98 image analysis progrem by an investigator who was blind to treatment group.
Statistical analysis was performed on a Macintosh computer using GB-Stat ppc 6.5.2. The histological results were analyzed by the Kruskal-Wallis nonparametric analysis of variance (ANOVA). Post hoc comparisons were made using Mann-Whitney U tests.

SCI and MS patients = conditions: cited from earlier work
[5] = system: mechanical hyperalgesia after nerve ligation; experiment: Neuropathic pain model, spinal nerve constriction, von Frey paw withdrawal threshold; assay type: in vivo, rat; conditions: 90 mg/kg sc, tested 45 minutes after dosing
Procedure: Adult male Sprague-Dawley rats received unilateral constriction of the L6 nerve to produce chronic nerve injury. Following recovery from surgery (3–7 days post operative) animals were tested for paw withdrawal threshold to mechanical stimuli applied to the affected paw. This was determined by the application of calibrated von Frey monofilaments to the plantar surface of each hindpaw. Only animals with a 50% decrease in withdrawal threshold in the ligated paw were employed in the study, and were randomly assigned to one of 6 groups: three groups receiving one of three doses of HP 184 (0.3, 3 and 20 mg/kg, po), a fourth group receiving a single dose of another compound referred to MDL (10 mg/kg, ip), a fifth group receiving gabapentin (90 mg/kg, sc), and a sixth group receiving vehicle only. Behavioral testing occurred 45 minutes following the gabapentin (90 mg/kg, sc), and 3 hours following the HP 184, MDL, and vehicle. A difference score between the ligated and non-ligated paw withdrawal thresholds is calculated for each animal, and these differences were subjected to ANOVA with group as the main factor. […] Analysis was between/within repeated measures ANOVA. […]

[6] = 0.3 mg/kg ip with RuR 30 mg/kg ip, 15 min
[7] = 0.3 mg/kg ip with RuR 30 mg/kg ip, 30 min
[8] = 0.3 mg/kg ip with RuR 30 mg/kg ip, 45 min
[9] = 0.6 mg/kg ip with RuR 30 mg/kg ip, 15 min
[10] = 0.6 mg/kg ip with RuR 30 mg/kg ip, 30 min
[11] = 0.6 mg/kg ip with RuR 30 mg/kg ip, 45 min
[12] = 30 mg/kg ip with RuR 30 mg/kg ip, 15 min
[13] = 30 mg/kg ip with RuR 30 mg/kg ip, 30 min
[14] = 30 mg/kg ip with RuR 30 mg/kg ip, 45 min
[15] = 10 mg/kg ip with RuR 30 mg/kg ip, 15 min
[16] = 10 mg/kg ip with RuR 30 mg/kg ip, 30 min
[17] = 10 mg/kg ip with RuR 30 mg/kg ip, 45 min
[18] = 100 mg/kg ip with RuR 30 mg/kg ip, 15 min
[19] = 100 mg/kg ip with RuR 30 mg/kg ip, 30 min
[20] = 100 mg/kg ip with RuR 30 mg/kg ip, 45 min

Nc1ccncc1 [4-AP, 4-amino pyridine]
% of mice that could support their own body weight [1, 6]: (88%) | number of mice that could support their own body weight versus total tested [1, 6]: 22 out of 25 | % of mice that could support their own body weight [1, 7]: (52%) | number of mice that could support their own body weight versus total tested [1, 7]: 13 out of 25 | % of mice that could support their own body weight [1, 8]: (48%) | number of mice that could support their own body weight versus total tested [1, 8]: 12 out of 25 | % of mice that could support their own body weight [1, 9]: (85.7%) | number of mice that could support their own body weight versus total tested [1, 9]: 12 out of 14 | % of mice that could support their own body weight [1, 10]: (57.1) | number of mice that could support their own body weight versus total tested [1, 10]: 8 out of 14 | % of mice that could support their own body weight [1, 11]: (57.1%) | number of mice that could support their own body weight versus total tested [1, 11]: 8 out of 14 | antagonism of the flaccid paralysis induced by ip RuR (conclusion) [1]: can antagonize the flaccid paralysis | OFT improvement compared to vehicle control (Mann-Whitney U-test) ([2]; 0.6 mg/kg ip once a day, p=0.0027): significant improvement at 90 min to 3 h and 12 h to day 2 | OFT score 3 hours after last dose (Day 28, mild) ([2]; 0.6 mg/kg ip once a day, three consecutive daily doses): 4.53 ± 0.02 and 4.53 ± .023 | % possible improvement (highest score = 5), mild ([2]; 0.6 mpk ip): 17.5%* | Delta of OFT score, Day 25 to Day 28 (mild) ([2]; 0.6 mpk ip): .10 | OFT score prior to dose (Day 25, mild) ([2]; group 0.6 mg/kg ip, baseline before dosing): 4.43 ± 0.03 and 4.43 ± .030 | motor recovery, Open Field Walking Test ([3]; 0.6 mg/kg ip, thirty-five days after moderate injury): similarly effective | % possible improvement, moderate ([3]; 0.6 mpk ip): 22.1%* | Delta of OFT score, Day 35 to Day 39 (moderate) ([3]; 0.6 mpk ip): .22 | OFT score Day 39 (moderate) 3 hrs after last dose ([3]; 0.6 mpk ip daily): 4.17 ± .047 | open field locomotor ability (mean OFT scores) vs vehicle, FIGS. 6a and 6b ([3]; HP184 0.3, 1 or 3 mg/kg po or 4-AP 0.6 mg/kg ip once a day, days 35–42, treatment effect p<0.01): significantly different from that of control animals receiving vehicle | OFT score Day 35 (moderate) prior ([3]; group 0.6 mpk ip, baseline before dosing): 3.95 ± .084 | myelinated / demyelinated area at the crush center, FIG. 7 [4]: significantly greater myelinated area than that of saline controls | doses at which restlessness, confusion and generalized tonic-clonic seizures have been reported (SCI and MS patients; Ball et al, 1979, Bever et al, 1994): higher than 0.8 mg/kg | serum level necessary for significant improvement (SCI and MS patients; MS patients, oral administration (Van Diemen et al, 1993)): 33 to 75 ng/mL | serum level at which a grand mal seizure was reported (SCI and MS patients; human study (Bever et al, 1994)): 104 ng/mL

Cc1cn(Nc2ccncc2F)c2ccccc12 [compound 8183]
% of mice that could support their own body weight [1, 12]: (92.8%) | number of mice that could support their own body weight versus total tested [1, 12]: 13 out of 14 | % of mice that could support their own body weight [1, 13]: (92.8%) | number of mice that could support their own body weight versus total tested [1, 13]: 13 out of 14 | % of mice that could support their own body weight [1, 14]: (100%) | number of mice that could support their own body weight versus total tested [1, 14]: 14 out of 14

Nc1nc2ccc(OC(F)(F)F)cc2s1 [RIL, riluzole]
% of mice that could support their own body weight [1, 15]: (60%) | number of mice that could support their own body weight versus total tested [1, 15]: 9 out of 15 | % of mice that could support their own body weight [1, 16]: (26.7%) | number of mice that could support their own body weight versus total tested [1, 16]: 4 out of 15 | % of mice that could support their own body weight [1, 17]: (26.7%) | number of mice that could support their own body weight versus total tested [1, 17]: 4 out of 15 | antagonism of the flaccid paralysis induced by ip RuR (conclusion) [1]: lack of effect

NCC1(CC(=O)O)CCCCC1 [gabapentin, reference compound]
mechanical hyperalgesia, difference of ligated minus normal paw withdrawal threshold, FIG. 10 [5]: clear reversal of hyperalgesia

diphenylhydaintoin [DPH]
% of mice that could support their own body weight [1, 12]: (26.7%) | number of mice that could support their own body weight versus total tested [1, 12]: 4 out of 15 | % of mice that could support their own body weight [1, 13]: (20%) | number of mice that could support their own body weight versus total tested [1, 13]: 3 out of 15 | % of mice that could support their own body weight [1, 14]: (26.7%) | number of mice that could support their own body weight versus total tested [1, 14]: 4 out of 15 | % of mice that could support their own body weight [1, 18]: (55%) | number of mice that could support their own body weight versus total tested [1, 18]: 11 out of 20 | % of mice that could support their own body weight [1, 19]: (50%) | number of mice that could support their own body weight versus total tested [1, 19]: 10 out of 20 | % of mice that could support their own body weight [1, 20]: (50%) | number of mice that could support their own body weight versus total tested [1, 20]: 10 out of 20 | antagonism of the flaccid paralysis induced by ip RuR (conclusion) [1]: lack of effect

Source: US7179821B2, “Method of treating of demyelinating diseases or conditions” (Aventis Pharmaceuticals Inc., priority 2001, dated 2007)
